The target of one test is T1, acetylcholinesterase (Mus musculus, UniProt P21836).
T1 construct: phosphate buffer solution containing the brain homogenate; from tissue; host or cells: mouse whole brain homogenate
T1 sequence (P21836 32-614): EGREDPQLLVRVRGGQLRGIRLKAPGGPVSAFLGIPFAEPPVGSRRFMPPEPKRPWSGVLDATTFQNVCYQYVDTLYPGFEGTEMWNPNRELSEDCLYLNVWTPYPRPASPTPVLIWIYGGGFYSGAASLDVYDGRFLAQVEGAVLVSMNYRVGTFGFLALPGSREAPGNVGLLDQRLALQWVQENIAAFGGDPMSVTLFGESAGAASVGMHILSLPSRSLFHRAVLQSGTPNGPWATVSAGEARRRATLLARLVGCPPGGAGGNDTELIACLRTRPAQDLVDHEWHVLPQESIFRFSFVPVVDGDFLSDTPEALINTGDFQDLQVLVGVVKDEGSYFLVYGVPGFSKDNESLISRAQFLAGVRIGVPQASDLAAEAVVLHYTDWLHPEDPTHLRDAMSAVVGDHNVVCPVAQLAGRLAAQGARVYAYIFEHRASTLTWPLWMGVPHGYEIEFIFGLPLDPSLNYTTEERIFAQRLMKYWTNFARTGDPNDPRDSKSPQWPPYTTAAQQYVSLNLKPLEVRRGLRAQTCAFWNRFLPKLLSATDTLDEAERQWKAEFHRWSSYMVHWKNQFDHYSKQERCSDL
As to the kind of experiment: biochemical.

A further test addresses T2, serotonin re-uptake (Rattus norvegicus, UniProt P31652).
T2 construct: synaptosome prepared from rat whole brains except the cerebellums; from tissue; host or cells: synaptosomes from rat whole brain except the cerebellum
As to the kind of experiment: Serotonin re-uptake inhibitory activity (synaptosome, [3H]5-HT). It counts as biochemical. Particulars: synaptosome from rat whole brain except cerebellum; [3H]5-HT, 37° C.; read-out: IC50 (nM) Serotonin re-uptake inhibitory activity. The method, then:
Serotonin re-uptake inhibitory activity was determined using synaptosome prepared from rat whole brains except the cerebellums. Briefly, 10 μl of DMSO solution-dissolved test substance (control group; DMSO solution alone) was added to 1 ml of synaptosome and incubated for 5 min at 37° C. (in the control, DMSO alone was added to the synaptosome and incubated at 4° C.). Furthermore, 10 μl of [^3H]5-HT solution (final concentration: 10 μM as a total concentration of 5-HT, 100 nM as [^3H]5-HT) was added and incubated for 5 min at 37° C. Then 4 ml of ice-cold saline was added to stop the response. The response solution was filtered, 4 ml of saline was added, and the solution was once again filtered. Furthermore, 5 ml of Pico-Fluor was added, then ^3H levels on filter papers were counted by a liquid scintillation counter. Concentrations of test compounds to inhibit serotonin re-uptake by 50% (IC50) were calculated.

Where [1] appears, read: mouse whole brain homogenate, acetylthiocholine/DTNB, absorbance 412 nm, read-out: IC50 (nM) Acetylcholinesterase inhibitory activity.

IC50 data for 26 compounds are collected here from patent US7504393B2, “Benzylamine analogues” (priority 2001, dated 2009).

Counter-ions that a name gives are not always drawn. Like-named read-outs stand apart in the source and are kept apart here.

T2 sequence (P31652 whole entry): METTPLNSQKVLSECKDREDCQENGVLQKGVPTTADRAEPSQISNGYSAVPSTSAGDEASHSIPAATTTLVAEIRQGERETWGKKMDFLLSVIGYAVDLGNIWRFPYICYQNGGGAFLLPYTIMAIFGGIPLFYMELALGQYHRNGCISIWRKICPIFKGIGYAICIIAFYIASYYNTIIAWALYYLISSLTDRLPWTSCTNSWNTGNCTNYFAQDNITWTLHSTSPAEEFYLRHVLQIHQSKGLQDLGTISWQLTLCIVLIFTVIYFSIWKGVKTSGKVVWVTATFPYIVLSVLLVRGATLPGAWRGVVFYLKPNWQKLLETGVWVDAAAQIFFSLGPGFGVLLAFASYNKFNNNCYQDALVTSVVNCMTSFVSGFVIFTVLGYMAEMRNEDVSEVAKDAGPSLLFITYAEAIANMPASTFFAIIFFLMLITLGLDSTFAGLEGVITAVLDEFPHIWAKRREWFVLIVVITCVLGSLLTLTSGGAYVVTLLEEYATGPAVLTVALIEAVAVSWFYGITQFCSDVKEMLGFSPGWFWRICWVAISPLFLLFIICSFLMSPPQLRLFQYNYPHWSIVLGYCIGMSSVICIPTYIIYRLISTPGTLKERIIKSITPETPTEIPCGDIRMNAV

`CN(C)C(=O)Oc1ccc([C@H](CCOc2ccc([N+](=O)[O-])cc2Cl)N(C)C)cc1` [Test Compound 129, (S)-4-[3-(2-Chloro-4-nitrophenoxy)-1-dimethylaminopropyl]phenyl dimethylcarbamate hydrochloride]: the IC50 (in general, the concentration that inhibits the measured activity by half) on acetylcholinesterase was 64 nM; on serotonin re-uptake, 650 nM.
In the case of `CNC(CCOc1ccc(F)c(F)c1)c1ccc(OC(=O)N(C)C)cc1` (stereo not shown) [Test Compound 54, 4-[3-(3,4-Difluorophenoxy)-1-methylaminopropyl]phenyl dimethylcarbamate hydrochloride], the figures for the IC50 against acetylcholinesterase and at serotonin re-uptake were 670 nM and 166 nM, respectively.
For `CN[C@@H](CCOc1ccc([N+](=O)[O-])cc1Cl)c1ccc(OC(=O)N(C)C)cc1` [Test Compound 127, (S)-4-[3-(2-Chloro-4-nitrophenoxy)-1-methylaminopropyl]phenyl dimethylcarbamate hydrochloride] the same measures were 40 nM and 856 nM.
For `CN(C)C(=O)Oc1cccc([C@@H](CCOc2ccc([N+](=O)[O-])cc2)N(C)C)c1` [Test Compound 136, (R)-3-[3-(4-Nitrophenoxy)-1-dimethylaminopropyl]phenyl dimethylcarbamate hydrochloride], the IC50 against acetylcholinesterase came out at 980 nM; at serotonin re-uptake it was 236 nM.
On the same counts, the results for `CNC(CCOc1ccc(Cl)c([N+](=O)[O-])c1)c1cccc(OC(=O)N(C)C)c1` (stereo not shown) [Test Compound 203, 3-[3-(4-Chloro-3-nitrophenoxy)-1-methylaminopropyl]phenyl dimethylcarbamate hydrochloride] are 49 nM and 40 nM.
For `CN(C)C(=O)Oc1ccc2c(c1)CCN(C)C2CCOc1ccc([N+](=O)[O-])cc1Cl` (stereo not shown) [Test Compound 189, 2-Methyl-1-[2-(2-chloro-4-nitrophenoxy)-ethyl]-1,2,3,4-tetrahydroisoquinolin-6-yl dimethylcarbamate hydrochloride] the same measures were 6 nM and 300 nM.
With `CN[C@H](CCOc1ccc(Cl)cc1)c1ccc(OC(=O)N(C)C)cc1` [Test Compound 62, (R)-4-[3-(4-Chlorophenoxy)-1-methylaminopropyl]phenyl dimethylcarbamate hydrochloride], the IC50 turned out to be 270 nM against acetylcholinesterase and 343 nM on serotonin re-uptake.
On the same counts, the results for `Cc1cc(OCCC2c3ccc(OC(=O)N(C)C)cc3CCN2C)ccc1Cl` (stereo not shown) [Test Compound 188, 2-Methyl-1-[2-(4-chloro-3-methylphenoxy)-ethyl]-1,2,3,4-tetrahydroisoquinolin-6-yl dimethylcarbamate hydrochloride] are 53 nM and 150 nM.
On to `CNC(CCOc1ccc(F)cc1)c1ccc(OC(=O)N(C)C)cc1` (stereo not shown) [Test Compound 30, 4-[3-(4-Fluorophenoxy)-1-methylaminopropyl]phenyl dimethylcarbamate hydrochloride], for which the IC50 at acetylcholinesterase is 790 nM; at serotonin re-uptake it was 594 nM.
As to `CN(C)C(=O)Oc1ccc([C@@H](CCOc2ccc(F)c(F)c2)N(C)C)cc1` [Test Compound 152, (R)-4-[3-(3,4-Difluorophenoxy)-1-dimethylaminopropyl]phenyl dimethylcarbamate hydrochloride], the concentration for half-maximal inhibition (IC50) against acetylcholinesterase is 310 nM; at serotonin re-uptake, 67 nM.
For `CN(C)C(=O)Oc1ccc([C@@H](CCOc2ccc([N+](=O)[O-])cc2)N(C)C)cc1` [Test Compound 102, (R)-4-[1-Dimethylamino-3-(4-nitrophenoxy)propyl]phenyl dimethylcarbamate hydrochloride] the same measures were 170 nM and 167 nM.
On the same counts, the results for `CN[C@H](CCOc1cccc(Cl)c1)c1ccc(OC(=O)N(C)C)cc1` [Test Compound 61, (R)-4-[3-(3-Chlorophenoxy)-1-methylaminopropyl]phenyl dimethylcarbamate hydrochloride] are 230 nM and 182 nM.
On the same counts, the results for `CNC(CCOc1ccc2ncccc2c1)c1ccc(OC(=O)N(C)C)cc1` (stereo not shown) [Test Compound 180, 4-[3-(Quinolin-6-yloxy)-1-methylaminopropyl]phenyl dimethylcarbamate hydrochloride] are 111 nM and 104 nM.
For `CN[C@@H](CCOc1ccc(Cl)cc1)c1ccc(OC(=O)N(C)C)cc1` [Test Compound 82, (S)-4-[3-(4-Chlorophenoxy)-1-methylaminopropyl]phenyl dimethylcarbamate hydrochloride], the IC50 on acetylcholinesterase was found to be 83 nM; on serotonin re-uptake it was 377 nM.
In the case of `CN(C)C(=O)Oc1ccc(C(CCOc2ccc([N+](=O)[O-])cc2)N(C)C)cc1` (stereo not shown) [Test Compound 89, 4-[1-Dimethylamino-3-(4-nitrophenoxy)propyl]phenyl dimethylcarbamate hydrochloride], the figures for the IC50 against acetylcholinesterase and on serotonin re-uptake were 87 nM and 319 nM, respectively.
With `CNC(CCOc1ccc([N+](=O)[O-])cc1Cl)c1ccc(OC(=O)N(C)C)cc1` (stereo not shown) [Test Compound 124, 4-[3-(2-Chloro-4-nitrophenoxy)-1-methylaminopropyl]phenyl dimethylcarbamate hydrochloride], the IC50 against acetylcholinesterase was 64 nM; at serotonin re-uptake, 110 nM.
As to `CN(C)C(=O)Oc1ccc2c(c1)CCCN(C)C2CCOc1ccc([N+](=O)[O-])cc1Cl` (stereo not shown) [Test Compound 193, 2-Methyl-1-[2-(2-chloro-4-nitrophenoxy)-ethyl]-1,3,4,5-tetrahydro-1H-benzo[c]azepin-7-yl dimethylcarbamate hydrochloride], the IC50 on acetylcholinesterase (setting [1]) was 24 nM; at serotonin re-uptake it was 680 nM.
Regarding `CN(C)C(=O)Oc1ccc(C(CCOc2c(F)c(F)c(F)c(F)c2F)N(C)C)cc1` (stereo not shown) [Test Compound 181, 4-[3-(Pentafluorophenoxy)-1-dimethylaminopropyl]phenyl dimethylcarbamate hydrochloride], the IC50 on acetylcholinesterase is 198 nM; at serotonin re-uptake, 44 nM.
On the same counts, the results for `CN(C)C(=O)Oc1ccc(C(CCOc2cccc(F)c2)N(C)C)cc1` (stereo not shown) [Test Compound 70, 4-[1-Dimethylamino-3-(3-fluorophenoxy)propyl]phenyl dimethylcarbamate hydrochloride] are 90 nM and 86 nM.
Regarding `CNC(CCOc1cccc2ccccc12)c1ccc(OC(=O)N(C)C)cc1` (stereo not shown) [Test Compound 179, 4-[3-(Naphthalen-1-yloxy)-1-methylaminopropyl]phenyl dimethylcarbamate hydrochloride], the IC50 was 372 nM against acetylcholinesterase and 86 nM on serotonin re-uptake.
Consider `CN(C)C(=O)Oc1ccc(C(CCOc2ccc(F)cc2)N(C)C)cc1` (stereo not shown) [Test Compound 31, hydrochloride], for which the values for the IC50 on acetylcholinesterase (setting [1]) and at serotonin re-uptake were 440 nM and 323 nM, respectively.
As to `CN(C)C(=O)Oc1ccc2c(c1)C=CCN(C)C2CCOc1ccc(F)cc1Cl` (stereo not shown) [Test Compound 195, 2-Methyl-1-[2-(2-chloro-4-fluorophenoxy) -ethyl]-2,3-dihydro-1H-benzo[c]azepin-7-yl dimethylcarbamate hydrochloride], the figures for the IC50 against acetylcholinesterase and at serotonin re-uptake were 50 nM and 44 nM, respectively.
For `CN(C)C(=O)Oc1ccc(C(CCOc2ccc([N+](=O)[O-])cc2Cl)N(C)C)cc1` (stereo not shown) [Test Compound 131, 4-[3-(2-Chloro-4-nitrophenoxy)-1-dimethylaminopropyl]phenyl dimethylcarbamate hydrochloride] the same measures were 57 nM and 129 nM.
On to `CNC(CCOc1cccc(F)c1)c1ccc(OC(=O)N(C)C)cc1` (stereo not shown) [Test Compound 68, 4-[3-(3-Fluorophenoxy)-1-methylaminopropyl]phenyl dimethylcarbamate hydrochloride], for which the IC50 against acetylcholinesterase came out at 580 nM; on serotonin re-uptake it was 145 nM.
On the same counts, the results for `CN[C@@H](CCOc1ccc(F)c(F)c1)c1ccc(OC(=O)N(C)C)cc1` [Test Compound 162, (S)-4-[3-(3,4-Difluorophenoxy)-1-methylaminopropyl]phenyl dimethylcarbamate hydrochloride] are 790 nM and 594 nM.
For the compound `CN(C)C(=O)Oc1ccc(C(CCOc2ccc(F)c(F)c2)N(C)C)cc1` (stereo not shown) [Test Compound 76, 4-[3-(3,4-Difluorophenoxy)-1-dimethylaminopropyl]phenyl dimethylcarbamate hydrochloride], the concentration for half-maximal inhibition (IC50) against acetylcholinesterase turned out to be 300 nM; at serotonin re-uptake, 124 nM.
